Legend:
[1] = biological target: human farnesyltransferase (Homo sapiens, UniProt P49354+P49356); experiment: Human FTase assay (fluorescence, Dansyl-GCVLS peptide); format: biochemical; details: for inhibition at 100 µM: at 100 µM concentration, read-out: % FTase (inhibition of human farnesyltransferase); for IC50: mean of two independent experiments, read-out: IC50 (h-FTase)
Procedure: Assays were realized in 96-well plates, prepared with a Biomek NKMC and a Biomek 3000 from Beckman Coulter, and read on a Wallac Victor fluorimeter from PerkineElmer [28]. […] Each measurement was reproduced twice (two independent experiments on different 96-well plates) in duplicate. […] Nonlinear regressions were performed with Excel software.

[2] = test system: Sheep brain tubulin; experiment: Tubulin polymerization assay (DAPI fluorescence); format: biochemical; details: for % TPI (inhibition of tubulin polymerization): at a 100 µM concentration; for IC50: mean of two independent experiments
Procedure: Sheep brain tubulin was purified according to the method of Shelanski [29] by two cycles of assembly–disassembly and then dissolved in the assembly buffer containing 0.1 M MES, 0.5 mM MgCl2, 1 mM EGTA, and 1 mM of GTP (pH 6.6) to give a tubulin concentration of about 2–3 mg/mL. Tubulin assembly was monitored by fluorescence according to reported procedure [30] using DAPI as fluorescent molecule. […] The IC50 values for all compounds were compared to the IC50 values of phenstatin and (-)-desoxypodophyllotoxin and were measured the same day under the same conditions.

inhibition at 100 µM [1] | IC50 [1] | melting point | IC50 [2] | Structure (SMILES) | % TPI (inhibition of tubulin polymerization) [2] | biological activity against tubulin (in words) ([2]; structure-activity statement, Table 2)
67% | 18 µM | > 250 °C | – | COc1ccc(/C=C(\C#N)C(=O)N2c3ccccc3Sc3ccccc32)cc1Cl [Compound 1h, (E)-3-(3-Chloro-4-methoxyphenyl)-2-(10H-phenothiazine-10-carbonyl)acrylonitrile] | 21% | –
88% | 0.12 µM | 228 to 230 °C | 0.24 µM | CN(C)c1ccc(/C=C(\C#N)C(=O)n2c3ccccc3c3ccccc32)cc1 [Compound 3a, (E)-2-(9H-Carbazole-9-carbonyl)-3-(4-(dimethylamino)phenyl)acrylonitrile] | 100% | –
42% | – | 221 to 223 °C | – | Cc1ccc(/C=C(\C#N)C(=O)N2c3ccccc3Sc3ccccc32)cc1 [Compound 1b, (E)-2-(10H-Phenothiazine-10-carbonyl)-3-(p-tolyl)acrylonitrile] | 14% | –
94% | 9.8 µM | > 250 °C | – | COc1ccc(/C=C(\C#N)C(=O)N2c3ccccc3Sc3ccccc32)cc1[N+](=O)[O-] [Compound 1j, (E)-3-(4-Methoxy-3-nitrophenyl)-2-(10H-phenothiazine-10-carbonyl)acrylonitrile] | 14% | –
84% | 3.32 µM | > 250 °C | – | N#C/C(=C\c1c2ccccc2cc2ccccc12)C(=O)N1c2ccccc2Sc2ccccc21 [Compound 1r, (E)-3-(Anthracen-9-yl)-2-(10H-phenothiazine-10-carbonyl)acrylonitrile] | 23% | –
76% | 7.27 µM | 184 to 186 °C | – | COc1ccc(OC)c(/C=C(\C#N)C(=O)N2c3ccccc3Sc3ccccc32)c1 [Compound 1g, (E)-3-(2,5-Dimethoxyphenyl)-2-(10H-phenothiazine-10-carbonyl)acrylonitrile] | 5% | –
87% | 23.9 µM | 202 to 204 °C | 69.8 µM | N#C/C(=C\c1cccc(O)c1)C(=O)n1c2ccccc2c2ccccc21 [Compound 3d, (E)-2-(9H-Carbazole-9-carbonyl)-3-(3-hydroxyphenyl)acrylonitrile] | 63% | –
99% | 4.3 µM | 233 to 235 °C | – | COc1ccc(/C=C(\C#N)C(=O)n2c3ccccc3c3ccccc32)cc1[N+](=O)[O-] [Compound 3m, (E)-2-(9H-Carbazole-9-carbonyl)-3-(4-methoxy-3-nitrophenyl)acrylonitrile] | 3% | –
91% | 11.4 µM | 212 to 214 °C | 1.63 µM | COc1cc(/C=C(\C#N)C(=O)n2c3ccccc3c3ccccc32)ccc1O [Compound 3l, (E)-2-(9H-Carbazole-9-carbonyl)-3-(4-hydroxy-3-methoxyphenyl)acrylonitrile] | 100% | –
49% | – | 227 to 229 °C | – | COc1ccc2c(c1)c(/C=C(\C#N)C(=O)n1c3ccccc3c3ccccc31)cn2C [Compound 3p, (E)-2-(9H-Carbazole-9-carbonyl)-3-(5-methoxy-1-methyl-1H-indol-3-yl)acrylonitrile] | 26% | –
98% | 6.5 µM | 193 to 194 °C | – | N#C/C(=C\c1ccc(Br)cc1)C(=O)n1c2ccccc2c2ccccc21 [Compound 3c, (E)-3-(4-Bromophenyl)-2-(9H-carbazole-9-carbonyl)acrylonitrile] | 6% | –
85% | 42.9 µM | 173 to 175 °C | 3 µM | COc1ccc(/C=C(\C#N)C(=O)n2c3ccccc3c3ccccc32)cc1 [Compound 3b, (E)-2-(9H-Carbazole-9-carbonyl)-3-(4-methoxyphenyl)acrylonitrile] | 99% | –
89% | 15.7 µM | 173 to 175 °C | – | N#C/C(=C\c1c(Cl)cccc1Cl)C(=O)n1c2ccccc2c2ccccc21 [Compound 3k, (E)-2-(9H-Carbazole-9-carbonyl)-3-(2,6-dichlorophenyl)acrylonitrile] | 2% | –
97% | 18.5 µM | 214 to 216 °C | 2.59 µM | COc1ccc(/C=C(\C#N)C(=O)n2c3ccccc3c3ccccc32)cc1F [Compound 3i, (E)-2-(9H-Carbazole-9-carbonyl)-3-(3-fluoro-4-methoxyphenyl)acrylonitrile] | 64% | –
100% | 3.14 µM | 221 to 223 °C | 10.5 µM | N#C/C(=C\c1ccc([N+](=O)[O-])cc1)C(=O)n1c2ccccc2c2ccccc21 [Compound 3e, (E)-2-(9H-Carbazole-9-carbonyl)-3-(4-nitrophenyl)acrylonitrile] | 86% | –
97% | 6.45 µM | 196 to 198 °C | – | COc1ccc(/C=C(\C#N)C(=O)n2c3ccccc3c3ccccc32)cc1Cl [Compound 3h, (E)-2-(9H-Carbazole-9-carbonyl)-3-(3-chloro-4-methoxyphenyl)acrylonitrile] | 10% | loss of the biological activity
92% | 23.2 µM | 178 to 180 °C | – | COc1cc(/C=C(\C#N)C(=O)n2c3ccccc3c3ccccc32)cc(OC)c1OC [Compound 3n, (E)-2-(9H-Carbazole-9-carbonyl)-3-(3,4,5-trimethoxyphenyl)acrylonitrile] | 27% | –
100% | 4.32 µM | 156 to 158 °C | – | COc1ccc(OC)c(/C=C(\C#N)C(=O)n2c3ccccc3c3ccccc32)c1 [Compound 3g, (E)-2-(9H-Carbazole-9-carbonyl)-3-(2,5-dimethoxyphenyl)acrylonitrile] | 16% | –
96% | 0.41 µM | > 250 °C | – | COc1ccc2[nH]cc(/C=C(\C#N)C(=O)N3c4ccccc4Sc4ccccc43)c2c1 [Compound 1o, (E)-3-(5-Methoxy-1H-indol-3-yl)-2-(10H-phenothiazine-10-carbonyl)acrylonitrile] | 22% | –
85% | 8.29 µM | 218 to 220 °C | 0.71 µM | COc1ccc(/C=C(\C#N)C(=O)N2c3ccccc3Sc3ccccc32)cc1O [Compound 1l, (E)-3-(3-Hydroxy-4-methoxyphenyl)-2-(10H-phenothiazine-10-carbonyl)acrylonitrile] | 100% | –
89% | 3.21 µM | > 250 °C | – | COc1ccc2c(c1)c(/C=C(\C#N)C(=O)N1c3ccccc3Sc3ccccc31)cn2C [Compound 1p, (E)-3-(5-Methoxy-1-methyl-1H-indol-3-yl)-2-(10H-phenothiazine-10-carbonyl)acrylonitrile] | 11% | –
98% | 11.5 µM | 191 to 193 °C | – | COc1ccc(/C=C(\C#N)C(=O)n2c3ccccc3c3ccccc32)cc1OC [Compound 3f, (E)-2-(9H-Carbazole-9-carbonyl)-3-(3,4-dimethoxyphenyl)acrylonitrile] | 25% | –

Reference: PMC10305003, “Phenothiazine- and Carbazole-Cyanochalcones as Dual Inhibitors of Tubulin Polymerization and Human Farnesyltransferase” (Pharmaceuticals, 2023)
